Measurements as given in publication PMC2362861, “Potent interaction of flavopiridol with MRP1” (British Journal of Cancer, 1999).
Read-outs that look alike come from different tables or passages of the source.

Experiments:
[1] = target: T1, MRP1 ATPase activity (Homo sapiens, UniProt P33527); assay: ATPase activity of GLC4/ADR plasma membranes (colourimetric inorganic phosphate); format: biochemical
T1 construct: plasma membrane vesicles prepared from the MRP1 overexpressing cell line GLC4/ADR; endogenous in cells; host or cells: GLC4/ADR (adriamycin-selected human small-cell lung cancer subline); plasma membrane vesicles
Description: One form of cellular resistance, directed against a wide spectrum of natural agents, is referred to as multidrug resistance (MDR). […] The ATP-dependent transport of anticancer drugs out of tumour cells that express MDR proteins may at least theoretically lead to impaired treatment outcome of patients. […] 1-Chloro-2,4-dinitrobenzene (CDNB) was from Sigma (St Louis, MO, USA). […] The isoflavonoid genis- tein was from ICN Biomedicals (Zoetermeer, The Netherlands). […] The (iso)flavonoids were dissolved as a stock solution of 40 mM in dimethyl sulphoxide (DMSO; Across Chimica, Belgium) and stored at -20C. Before experiments, 1:1 dilutions were made in ethanol, followed by a dilution in ethanol/water (1: 3; v/v) to the appropriate concentrations. The maximal concentration of DMSO and ethanol, which was also added to the controls, was 0.5% (v/v). Membrane filters OE67 were from Schleicher and Schuell (Dassel, Germany). Doxorubicin hydrochloride was from Laboratoire Roger Bellon (France). […] S1(MRP1) cells were cultured in the presence of G418 until 2-10 days before experiments. […] Cells were harvested by centrifugation (275 g, 5 min) and washed twice in phosphate-buffered saline. Subsequently, the cells were incubated in 100 mM potassium chloride (KCl), 5 mM magnesium chloride (MgCl2 ), 1 mM phenylmethylsulphonyl fluoride and 50 mM HEPES-KOH (pH 7.4) for 1 h at 0C, in order to allow the cells to swell. Then the cells were ultrasonicated at 20% of the maximum power of an MSE sonicator (Soniprep 150) for three bursts of 15 s. The suspension was centrifuged at 1500 g for 10 min. […] After centrifugation at 100 000 g for 60 min the interface was removed and washed in 100 mM KC1-50 mM HEPES-5 mM MgCl2 buffer (pH 7.4). The final membrane preparations were stored at -80C at a protein concentration of ~ 4 mg ml-1 . […] Vesicles were incubated in KCl-HEPES buffer (pH 7.4) at 37C (protein concentration ~ 0.25 mg ml-1 ), in the presence of 10 mM MgCl2 with or without 1 mM ATP and tritium-labelled DNP-SG. The reaction was stopped by adding ice-cold KCl-HEPES buffer. After rapid filtration, the filters were washed twice with KCl-HEPES buffer. The radioactivity on the filters was measured by liquid scintillation counting. […] Plasma membranes were incubated for 1 h in KCl-HEPES buffer (pH 7.4) at 37C, in the presence of 1 mM EGTA, 1 mM sodium azide and 0.1 mM ouabain, with or without 1 mM ATP. […] Plasma membranes from GLC4 cells (black bars) and GLC4 /ADR cells (white bars) were incubated with 10 nM DNP-SG in the absence or presence of the MIB6 antibody (MIB6) (10 g ml-1 ) or an MRP1 control antibody (10 g ml-1 ). […] In short, anti-MRP1 antibodies were tested for their capacity to inhibit DNP-SG transport into GLC4 /ADR inside-out plasma membrane vesicles.

[2] = test system: GLC4 cells; assay: Steady-state cellular [3H]daunorubicin accumulation in GLC4 cells; format: cell-based, human; conditions: GLC4; (iso)flavonoid 50 µM (μM); 0.5 M DNR, 75 min
[3] = test system: GLC4/ADR cells; assay: Steady-state cellular [3H]daunorubicin accumulation in GLC4/ADR cells; format: cell-based, human
[4] = test system: GLC4; assay: Growth inhibition assay, GLC4; format: cell-based, human; conditions: for IC50: Homo sapiens
[5] = test system: GLC4/ADR; assay: Growth inhibition assay, GLC4/ADR; format: cell-based, human; conditions: for IC50: Homo sapiens, GLC-4/ADR
[6] = test system: SW1573; assay: Growth inhibition assay, SW1573; format: cell-based; conditions: Homo sapiens, SW1573, 72 h, read-out: IC50 value
[7] = test system: S1(MRP); assay: Growth inhibition assay, S1(MRP); format: cell-based, human
[8] = test system: S1(1.1); assay: Growth inhibition assay, S1(1.1); format: cell-based; conditions: Homo sapiens, 72 h, read-out: IC50 value
[9] = test system: cyclin-dependent kinases; set-up: method as in Losiewicz et al, 1996; conditions: ref Losiewicz et al, 1996; cited from earlier work
[10] = during continuous infusion, ref Senderowicz et al, 1998, Stinson et al; cited from earlier work

T1 sequence (P33527 whole entry): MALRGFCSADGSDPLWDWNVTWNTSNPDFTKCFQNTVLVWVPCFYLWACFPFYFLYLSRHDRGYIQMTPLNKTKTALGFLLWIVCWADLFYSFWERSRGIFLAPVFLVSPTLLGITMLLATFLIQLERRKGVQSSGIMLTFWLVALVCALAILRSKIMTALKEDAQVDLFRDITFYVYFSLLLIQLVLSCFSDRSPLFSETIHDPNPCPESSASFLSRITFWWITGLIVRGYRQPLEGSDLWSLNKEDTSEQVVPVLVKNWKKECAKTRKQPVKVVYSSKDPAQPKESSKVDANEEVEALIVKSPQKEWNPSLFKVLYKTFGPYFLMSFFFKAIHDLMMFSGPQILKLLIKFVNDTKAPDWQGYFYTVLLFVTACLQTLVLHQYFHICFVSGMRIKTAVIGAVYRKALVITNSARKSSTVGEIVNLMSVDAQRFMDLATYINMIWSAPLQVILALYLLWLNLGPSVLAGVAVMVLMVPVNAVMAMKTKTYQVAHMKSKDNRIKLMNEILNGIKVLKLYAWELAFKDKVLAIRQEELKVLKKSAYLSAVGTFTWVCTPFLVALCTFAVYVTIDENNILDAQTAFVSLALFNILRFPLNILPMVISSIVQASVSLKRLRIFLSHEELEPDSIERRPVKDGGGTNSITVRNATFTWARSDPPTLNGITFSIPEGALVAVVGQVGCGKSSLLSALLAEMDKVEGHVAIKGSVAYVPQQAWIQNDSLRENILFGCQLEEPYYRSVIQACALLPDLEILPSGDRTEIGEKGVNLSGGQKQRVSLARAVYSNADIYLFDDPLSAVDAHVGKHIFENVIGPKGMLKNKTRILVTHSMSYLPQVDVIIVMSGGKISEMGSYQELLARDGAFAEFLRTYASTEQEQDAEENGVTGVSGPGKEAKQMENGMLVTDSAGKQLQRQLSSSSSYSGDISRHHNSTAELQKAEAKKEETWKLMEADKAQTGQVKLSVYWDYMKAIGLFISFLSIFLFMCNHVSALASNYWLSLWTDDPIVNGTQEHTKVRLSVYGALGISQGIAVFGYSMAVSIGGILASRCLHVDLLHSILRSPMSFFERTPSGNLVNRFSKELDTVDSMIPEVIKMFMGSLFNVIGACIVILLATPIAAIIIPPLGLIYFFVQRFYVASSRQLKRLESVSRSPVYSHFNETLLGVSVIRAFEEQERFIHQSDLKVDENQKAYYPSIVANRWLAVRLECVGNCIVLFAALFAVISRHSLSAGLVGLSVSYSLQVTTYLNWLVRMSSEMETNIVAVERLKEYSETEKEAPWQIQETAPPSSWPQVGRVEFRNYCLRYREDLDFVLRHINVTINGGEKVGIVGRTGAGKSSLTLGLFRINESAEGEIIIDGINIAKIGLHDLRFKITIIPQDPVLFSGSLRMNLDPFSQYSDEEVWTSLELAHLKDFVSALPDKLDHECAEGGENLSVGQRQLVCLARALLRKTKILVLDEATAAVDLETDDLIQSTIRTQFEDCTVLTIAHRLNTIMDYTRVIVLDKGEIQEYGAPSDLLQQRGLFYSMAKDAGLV

CN1CC[C@H](c2c(O)cc(O)c3c(=O)cc(-c4ccccc4Cl)oc23)[C@H](O)C1 [Flavopiridol, (-)cis-5,7-dihydroxy-2-(2-chlorophenyl)-8[4-(3-hydroxy-1-methyl)-piperidinyl]-4H-benzopyran-4-one]
Concentrations at which ATPase activity of GLC4/ADR membranes was significantly induced ([1]; GLC4/ADR membranes, lowest effective concentration and higher): ≥ 1 µM
Effect of GSH on (iso)flavonoid-induced MRP1 ATPase activity ([1]; GSH 0.5 mM or 5 mM, data not shown): no synergistic stimulation
Accumulation of daunorubicin, mean percentages of control (set at 100%) [2]: 104%
Effect on accumulation of DNR in GLC4/ADR cells ([3]; 50 µM (μM)): increased the accumulation of DNR
Lowest concentration tested, giving a significant increase of DNR accumulation ([3]; GLC4/ADR): 100 nM
Difference of DNR accumulation from control (P < 0.05) ([3]; GLC4/ADR, all tested flavopiridol concentrations (0.1, 1, 5), Figure 6): gave a significant difference
Concentrations at which daunorubicin accumulation is affected ([3]; GLC4/ADR, only tested compound active in this range): below 1 μM
IC50 ([4]; GLC4, 72 h, read-out: IC50 value): 45 nM
IC50 ([4]; GLC4, read-out: IC50 value): > 1000 nM
IC50 ([4]; GLC4, read-out: IC50 values): > 1000 nM
Growth inhibitory potency compared to genistein and kaempferol ([4]; Table 3, all cell lines): about 100 fold
Resistance compared to GLC4 ([5]; GLC4/ADR vs GLC4): 2.8 times
IC50 ([5]; 72 h, read-out: IC50 value): 128 nM
IC50 ([5]; read-out: IC50 value): > 1000 nM
IC50 ([5]; read-out: IC50 values): > 1000 nM
IC50 [6]: 85 nM
IC50 ([7]; Homo sapiens, S1(MRP), 72 h, read-out: IC50 value): 130 nM
Resistance compared to SW1573 ([7]; S1(MRP) vs SW1573): 1.5 times
IC50 [8]: 93 nM
Potency as inhibitor of cyclin-dependent kinases compared to genistein and quercetin [9]: 250 fold
Steady-state plasma concentrations in humans [10]: 200 to 300 nM
